In paper PMC10416055, “Structural basis of bidirectional allostery across the heme in a cytochrome P450 enzyme” (The Journal of Biological Chemistry, 2023):

System: CYP121

| SMILES | absorbance (Soret peak) of ligand-bound CYP121 [nm] |
| --- | --- |
| Clc1ccccc1C(c1ccccc1)(c1ccccc1)n1ccnc1 [clotrimazole] | 424 |
| CC(=O)N1CCN(c2ccc(OCC3COC(Cn4ccnc4)(c4ccc(Cl)cc4Cl)O3)cc2)CC1 (centres unmarked) [ketoconazole] | 421 |
